Consider two molecules from US20210147900A1, “METHODS AND COMPOSITIONS FOR DETECTING BETA-HYDROXYBUTYRATE IN BIOLOGICAL FLUIDS” (F.A.T. Stats LLC, priority 2019, published 2021).

The data set in a line: Solubility / appearance of coenzyme Q with β-cyclodextrin in water or Tris/NaOH buffer. The following applies: for Appearance: in water, 5 hours at 75° C. and 5 hours at 85° C. Type of data set: physicochemical. The method, then: First, 0.107 grams of β-cyclodextrin was dissolved in 4.8 grams of the Tris/NaOH buffer solution (pH 8.7). This mixture this heated at 45° C. for 5 minutes and then 0.082 g of coenzyme Q0 was added. Heating was continued until coenzyme Q0 was no longer visible as a solid. The coenzyme Q0/β-cyclodextrin solution was used within 2 hours of making it. Alternatively, 0.0074 grams of coenzyme Q0 and 0.0481 grams of β-cyclodextrin was mixed with 1.2070 grams water. This mixture was heated at 50° C. for 20 minutes with stirring. […] This procedure results in a fully solubilized form of coenzyme Q0 which is optically transparent and has no visible particles of coenzyme Q0 in the mixture. It is important that the coenzyme Q0 mixture is fully soluble so that it may be mixed with other water-soluble ingredients and applied to a paper test strip for further reactions with biological solutes. If the coenzyme Q0/β-cyclodextrin mixture is not water soluble, it cannot provide a uniform distribution of reactions for the test for BHB in a biological fluid as disclosed herein.
The procedure for solubilizing coenzyme Q10 in U.S. Patent Application Publication No. US 2007/0202090 A1 was followed and results are listed below in Table 17. Coenzyme Q10 and β-cyclodextrin were combined with water in the following molar ratios of coenzyme Q10 to β-cyclodextrin: 1:1; 1:5; and 1:10. Each solution was heated for 5 hours at 75° C. and then an additional 5 hours at 85° C.

As to `COC1=C(OC)C(=O)C(C)=CC1=O` [coenzyme Q0, 2,3-dimethoxy-5-methyl-p-benzoquinone], the “Appearance of mixture with β-cyclodextrin in water” value (0.0074 g coenzyme Q0, 0.0481 g β-cyclodextrin, 1.2070 g water, 50° C. for 20 minutes with stirring) is “transparent solution with no visible particles”.
For the molecule `COC1=C(OC)C(=O)C(C/C=C(\C)CC/C=C(\C)CC/C=C(\C)CC/C=C(\C)CC/C=C(\C)CC/C=C(\C)CC/C=C(\C)CC/C=C(\C)CC/C=C(\C)CCC=C(C)C)=C(C)C1=O` [coenzyme Q10], the Appearance result is, setting by setting: (molar ratio coenzyme Q10 to β-cyclodextrin 1:1) “not transparent;”; (molar ratio coenzyme Q10 to β-cyclodextrin 1:5) “not transparent;”; (molar ratio coenzyme Q10 to β-cyclodextrin 1:10) “not transparent;”. For the same molecule, the “Incorporation in basic buffer solution with β-cyclodextrin” value (same procedure as Example 2 (Tris/NaOH buffer pH 8.7, heating)) is recorded as “could not be adequately incorporated”.
